Measurements published in patent US20240269298A1, “PHOSPHONYL DERIVATIVE, AND COMPOSITION AND PHARMACEUTICAL APPLICATION THEREOF” (XIZANG HAISCO PHARMACEUTICAL CO., LTD., priority 2021, published 2024).
Like-named read-outs stand apart in the source and are kept apart here.

Key:
A431 (EGFR-WT) cells = assay: Inhibitory activity on proliferation of A431 (EGFR-WT) cells (CTG, 72 h); assay type: cell-based; settings: Homo sapiens, A-431
Protocol: NCI-H1975 (EGFR-L858R-T790M) and A431 (EGFR-WT) cells were purchased from ATCC and cultured in an incubator at 37° C. with 5% CO2, and the culture mediums were RPMI1640+10% FBS and DMEM+10% FBS, respectively. On the first day, NCI-H1975 (EGFR-L858R-T790M) and A431 (EGFR-WT) cells in the logarithmic phase were collected, and viable cells were counted using an automatic cell analyzer (countstar). The cell suspensions were adjusted with the culture mediums and plated on a 96-well cell culture plate at 1000 cells/well for NCI-H1975 (EGFR-L858R-T790M) cells and at 3000 cells/well for A431 cells. The next day, the culture mediums were aspirated, and 90 μL of fresh culture mediums and 10 μL of the compounds at different concentrations were added to each well, wherein the final concentration of DMSO in each well was 0.1%. The plate was cultured in the incubator at 37° C. with 5% CO2 for 72 hours. After 72 hours of drug treatment, 50 μL of CTG solution (promega, G7572), which was already pre-melted and equilibrated to room temperature, was added to each well, and the mixtures were uniformly mixed for 2 min using a microplate shaker. The plate was placed at room temperature for 10 min, and then […] signal values were measured using a microplate reader (PHERAstar FSX).
Surviving cells % was calculated based on Vsample/Vvehicle control×100%, wherein Vsample was the readout of the drug-treated group, and Vvehicle control was the average value of the vehicle control group. Using the origin 9.2 software and nonlinear regression model, S-shaped dose-survival curves were plotted, and IC50 values were calculated.

[1] = tested on: NCI-H1975 (EGFR-L858R-T790M) cells; assay: Inhibitory activity on proliferation of NCI-H1975 (EGFR-L858R-T790M) cells (CTG, 72 h); assay type: cell-based; settings: Homo sapiens
Outline: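 IC50 values come from S-shaped dose-survival fits of CTG signal expressed as % of vehicle. Compound exposure lasted 72 h at 37 °C with 0.1% DMSO; seeding was 3000 A431 cells/well in DMEM+10% FBS and 1000 NCI-H1975 cells/well in RPMI1640+10% FBS.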

[2] = read-out: IC50 (value in brackets)

| IC50 (A431 (EGFR-WT) cells) | IC50 ([1]; read-out: IC50 (class symbol)) | IC50 [1, 2] | Structure (SMILES) |
| --- | --- | --- | --- |
| ≥ 10000 nM |  |  | COc1cc(N2CCN(c3ccc4c(c3)C(=O)N(C3CCC(=O)NC3=O)C4=O)CC2)c(-c2cnn(C)c2)cc1Nc1ncc(Cl)c(Nc2ccc(C3CC3)cc2P(C)(C)=O)n1 (centres unmarked) [Compound 167, 5-(4-(4-((5-chloro-4-((4-cyclopropyl-2-(dimethylphosphoryl)phenyl)amino)pyrimidin-2-yl)amino)-5-methoxy-2-(1-methyl-1H-pyrazol-4-yl)phenyl)piperazin-1-yl)-2-(2,6-dioxopiperidin-3-yl)isoindoline-1,3-dione] |
| ≥ 10000 nM |  |  | COc1cc(N2CCC(CN3CC4CN(c5ccc6c(c5)C(=O)N(C5CCC(=O)NC5=O)C6=O)CC4C3)CC2)c(C2CC2)cc1Nc1ncc(Br)c(Nc2ccc3nccnc3c2P(C)(C)=O)n1 (centres unmarked) [Compound 34, 5-(5-((1-(4-((5-bromo-4-((5-(dimethylphosphoryl)quinoxalin-6-yl)amino)pyrimidin-2-yl)amino)-2-cyclopropyl-5-methoxyphenyl)piperidin-4-yl)methyl)hexahydropyrrolo[3,4-c]pyrrol-2(1H)-yl)-2-(2,6-dioxopiperidin-3-yl)isoindoline-1,3-dione] |
| ≥ 10000 nM |  |  | COc1cc(N2CCC(N3CCN(c4ccc(N5CCC(=O)NC5=O)cc4)CC3)CC2)c(-c2cnn(C)c2)cc1Nc1ncc(Cl)c(Nc2ccc(-c3ccccc3)cc2P(C)(C)=O)n1 [Compound 137, 1-(4-(4-(1-(4-((5-chloro-4-((3-(dimethylphosphoryl)-[1,1′-biphenyl]-4-yl)amino)pyrimidin-2-yl)amino)-5-methoxy-2-(1-methyl-1H-pyrazol-4-yl)phenyl)piperidin-4-yl)piperazin-1-yl)phenyl)dihydropyrimidine-2,4(1H,3H)-dione] |
| ≥ 10000 nM |  |  | COc1cc(N2CCC3(CCN(c4ccc5c(c4)C(=O)N(C4CCC(=O)NC4=O)C5=O)CC3)CC2)c(-c2cnn(C)c2)cc1Nc1ncc(Br)c(Nc2ccc(C3CC3)cc2P(C)(C)=O)n1 (centres unmarked) [Compound 165, 5-(9-(4-((5-bromo-4-((4-cyclopropyl-2-(dimethylphosphoryl)phenyl)amino)pyrimidin-2-yl)amino)-5-methoxy-2-(1-methyl-1H-pyrazol-4-yl)phenyl)-3,9-diazaspiro[5.5]undecan-3-yl)-2-(2,6-dioxopiperidin-3-yl)isoindoline-1,3-dione] |
|  | 100 to 500 nM | 182 nM | COc1cc(N2CCC(N3CCC(CN4CCN(c5ccc6c(c5)C(=O)N(C5CCC(=O)NC5=O)C6=O)CC4)CC3)CC2)c(-c2cnn(C)c2)cc1Nc1ncc(Cl)c(Nc2ccc(-c3ccccc3)cc2P(C)(C)=O)n1 (centres unmarked) [Compound 53, 5-(4-((1′-(4-((5-chloro-4-((3-(dimethylphosphoryl)-[1,1′-biphenyl]-4-yl)amino)pyrimidin-2-yl)amino)-5-methoxy-2-(1-methyl-1H-pyrazol-4-yl)phenyl)-[1,4′-bipiperidin]-4-yl)methyl)piperazin-1-yl)-2-(2,6-dioxopiperidin-3-yl)isoindoline-1,3-dione] |
|  | < 100 nM | 72 nM | COc1cc(N2CCC3(CCN(CC4CCN(c5cc6c(cc5F)C(=O)N(C5CCC(=O)NC5=O)C6=O)CC4)CC3)CC2)c(-c2cnn(C)c2)cc1Nc1ncc(Cl)c(Nc2ccc(-c3ccccc3)cc2P(C)(C)=O)n1 (centres unmarked) [Compound 51, 5-(4-((9-(4-((5-chloro-4-((3-(dimethylphosphoryl)-[1,1′-biphenyl]-4-yl)amino)pyrimidin-2-yl)amino)-5-methoxy-2-(1-methyl-1H-pyrazol-4-yl)phenyl)-3,9-diazaspiro[5.5]undecan-3-yl)methyl)piperidin-1-yl)-2-(2,6-dioxopiperidin-3-yl)-6-fluoroisoindoline-1,3-dione] |
|  | 100 to 500 nM | 266 nM | COc1cc(N2CCC(CN3CCCC4(CCN(c5ccc6c(c5)C(=O)N(C5CCC(=O)NC5=O)C6=O)CC4)C3)CC2)c(-c2cnn(C)c2)cc1Nc1ncc(Cl)c(Nc2ccc(-c3ccccc3)cc2P(C)(C)=O)n1 (centres unmarked) [Compound 49, 5-(2-((1-(4-((5-chloro-4-((3-(dimethylphosphoryl)-[1,1′-biphenyl]-4-yl)amino)pyrimidin-2-yl)amino)-5-methoxy-2-(1-methyl-1H-pyrazol-4-yl)phenyl)piperidin-4-yl)methyl)-2,9-diazaspiro[5.5]undecan-9-yl)-2-(2,6-dioxopiperidin-3-yl)isoindoline-1,3-dione] |
| ≥ 10000 nM |  |  | COc1cc(N2CCC(N3CCN(c4ccc(N5CCC(=O)NC5=O)cc4)CC3)CC2)c(-c2cnn(C)c2)cc1Nc1ncc(Cl)c(Nc2ccc(C3CC3)cc2P(C)(C)=O)n1 [Compound 133, 1-(4-(4-(1-(4-((5-chloro-4-((4-cyclopropyl-2-(dimethylphosphoryl)phenyl)amino)pyrimidin-2-yl)amino)-5-methoxy-2-(1-methyl-1H-pyrazol-4-yl)phenyl)piperidin-4-yl)piperazin-1-yl)phenyl)dihydropyrimidine-2,4(1H,3H)-dione] |
|  | < 100 nM | 43 nM | COc1cc(N2CCC(CN3CCN(c4ccc(C5CCC(=O)NC5=O)cc4)CC3)CC2)c(-c2cnn(C)c2)cc1Nc1ncc(Cl)c(Nc2ccc(-c3ccccc3)cc2P(C)(C)=O)n1 (centres unmarked) [Compound 155, 3-(4-(4-((1-(4-((5-chloro-4-((3-(dimethylphosphoryl)-[1,1′-biphenyl]-4-yl)amino)pyrimidin-2-yl)amino)-5-methoxy-2-(1-methyl-1H-pyrazol-4-yl)phenyl)piperidin-4-yl)methyl)piperazin-1-yl)phenyl)piperidine-2,6-dione] |
|  | < 100 nM | 68 nM | COc1cc(N2CCC(CN3CCN(c4ccc(C5CCC(=O)NC5=O)cc4)CC3)CC2)c(-c2cnn(C)c2)cc1Nc1ncc(Cl)c(Nc2ccc(C3CC3)cc2P(C)(C)=O)n1 (centres unmarked) [Compound 152, 3-(4-(4-((1-(4-((5-chloro-4-((4-cyclopropyl-2-(dimethylphosphoryl)phenyl)amino)pyrimidin-2-yl)amino)-5-methoxy-2-(1-methyl-1H-pyrazol-4-yl)phenyl)piperidin-4-yl)methyl)piperazin-1-yl)phenyl)piperidine-2,6-dione] |
|  | < 100 nM | 19 nM | COc1cc(N2CCN(CC3CCN(c4ccc5c(c4)C(=O)N(C4CCC(=O)NC4=O)C5=O)CC3)CC2)c(-c2cnn(C)c2)cc1Nc1ncc(Br)c(Nc2ccccc2P(C)(C)=O)n1 (centres unmarked) [Compound 127, 5-(4-((4-(4-((5-bromo-4-((2-(dimethylphosphoryl)phenyl)amino)pyrimidin-2-yl)amino)-5-methoxy-2-(1-methyl-1H-pyrazol-4-yl)phenyl)piperazin-1-yl)methyl)piperidin-1-yl)-2-(2,6-dioxopiperidin-3-yl)isoindoline-1,3-dione] |
|  | < 100 nM | 7 nM | COc1cc(N2CCC(N3CCC4(CCCN(c5ccc6c(c5)C(=O)N(C5CCC(=O)NC5=O)C6=O)C4)CC3)CC2)c(-c2cnn(C)c2)cc1Nc1ncc(Cl)c(Nc2ccc3nccnc3c2P(C)(C)=O)n1 (centres unmarked) [Compound 11, 5-(9-(1-(4-((5-chloro-4-((5-(dimethylphosphoryl)quinoxalin-6-yl)amino)pyrimidin-2-yl)amino)-5-methoxy-2-(1-methyl-1H-pyrazol-4-yl)phenyl)piperidin-4-yl)-2,9-diazaspiro[5.5]undecan-2-yl)-2-(2,6-dioxopiperidin-3-yl)isoindoline-1,3-dione] |
|  | < 100 nM | 10 nM | COc1cc(N2CCC(N3CCC4(CCCN(c5ccc6c(c5)C(=O)N(C5CCC(=O)NC5=O)C6=O)C4)CC3)CC2)c(-c2cnn(C)c2)cc1Nc1ncc(Br)c(Nc2ccc3nccnc3c2P(C)(C)=O)n1 (centres unmarked) [Compound 32, 5-(9-(1-(4-((5-bromo-4-((5-(dimethylphosphoryl)quinoxalin-6-yl)amino)pyrimidin-2-yl)amino)-5-methoxy-2-(1-methyl-1H-pyrazol-4-yl)phenyl)piperidin-4-yl)-2,9-diazaspiro[5.5]undecan-2-yl)-2-(2,6-dioxopiperidin-3-yl)isoindoline-1,3-dione] |
|  | < 100 nM | 73 nM | COc1cc(N2CCC(N3CCN(c4ccc5c(c4)C(=O)N(C4CCC(=O)NC4=O)C5=O)CC3)CC2)c(-c2cnn(C)c2)cc1Nc1ncc(Cl)c(Nc2ccccc2P(C)(C)=O)n1 (centres unmarked) [Compound 115, 5-(4-(1-(4-((5-chloro-4-((2-(dimethylphosphoryl)phenyl)amino)pyrimidin-2-yl)amino)-5-methoxy-2-(1-methyl-1H-pyrazol-4-yl)phenyl)piperidin-4-yl)piperazin-1-yl)-2-(2,6-dioxopiperidin-3-yl)isoindoline-1,3-dione] |
